Experimental data from article PMC6600542 (Molecules, 2019).
Several values for one entry are separate records, joined by “and”; a condition that tells them apart may be missing. Equal entries are not always repeated.

Legend:
[1] = target: T1, human α-thrombin (Homo sapiens, UniProt P00734); assay: Thrombin chromogenic substrate hydrolysis assay; format: biochemical
T1 construct: purchased Haematologic Technologies, Inc
Protocol: (§1) Direct inhibition of human FXa and α-thrombin of the common coagulation pathway and human plasmin of the fibrinolysis pathway were measured using the corresponding chromogenic substrate hydrolysis assays at 37 °C and pH 7.4, as reported earlier using the 96-microplate platform. […] After 10 min incubation, 5 µL Spectrozyme FXa (5 mM stock conc.) was rapidly added and the residual activity of FXa was measured from the initial rate of increase in absorbance at 405 nm. […] The concentration vs effect curve was constructed using logistic Equation (1) from which the potency (IC50) and efficacy (ΔY) of inhibition were also obtained.
For thrombin and plasmin, the assays were performed using substrates appropriate for each enzyme (Spectrozyme TH for thrombin and Spectrozyme PL for plasmin) under conditions closest to the physiological condition. The KM of the substrate for its enzyme was used to identify the concentration of the substrate to be used for inhibition studies. […] After 10 min incubation, 5 µL Spectrozyme TH (1.0 mM stock conc.) was rapidly added and the residual activity of thrombin was measured from the initial rate of increase in absorbance at 405 nm. […] After 10 min incubation, 5 µL Spectrozyme PL (1.0 mM stock conc.) was rapidly added and the residual activity of plasmin was measured from the initial rate of increase in absorbance at 405 nm. […]

[2] = tested on: platelet-aggregation induced by adenosine diphosphate, epinephrine, thrombin, and collagen; details: cited from earlier work
[3] = cited from earlier work
[4] = tested on: human plasma deficient of FXI; assay: APTT clotting assay, FXI-deficient plasma; format: biochemical
Protocol: (§2) For the PT assay, thromboplastin-D was reconstituted according to the manufacturer’s directions and warmed to 37 °C. […] After incubation for 4 min at 37 °C, clotting was initiated by adding 100 μL of prewarmed 25 mM CaCl2 and the time to clotting was noted. […] To determine the in vitro effect on the APTT of deficient human plasmas, the APTT assay was repeated, using human plasmas deficient of factor VII (FVII), factor IX (FIX), FXI, or factor XII (FXII). […] The positive control used in APTT and PT assays was rivaroxaban, a clinically used FXa inhibitor. Under the conditions reported, rivaroxaban doubled the APTT and PT at concentrations of 0.123 ± 0.003 µM and 0.193 ± 0.043 µM, respectively.

[5] = target: human plasmin (Homo sapiens, UniProt P00747); assay: Plasmin chromogenic substrate hydrolysis assay; format: biochemical; details: Spectrozyme PL, pH 7.4, 37 °C
Protocol: as §1
For thrombin and plasmin, the assays were performed using substrates appropriate for each enzyme (Spectrozyme TH for thrombin and Spectrozyme PL for plasmin) under conditions closest to the physiological condition. The KM of the substrate for its enzyme was used to identify the concentration of the substrate to be used for inhibition studies. […] After 10 min incubation, 5 µL Spectrozyme TH (1.0 mM stock conc.) was rapidly added and the residual activity of thrombin was measured from the initial rate of increase in absorbance at 405 nm. […] After 10 min incubation, 5 µL Spectrozyme PL (1.0 mM stock conc.) was rapidly added and the residual activity of plasmin was measured from the initial rate of increase in absorbance at 405 nm. […] Buffer for assays was 20–50 mM Tris-HCl buffer, pH 7.4, containing 100–150 mM NaCl, 2.5 mM CaCl2, 0.1% PEG8000, and 0.02% Tween80. All assays were performed three times.

[6] = target: T2, human FXa (Homo sapiens, UniProt P00742); assay: Michaelis-Menten kinetics of Spectrozyme FXa hydrolysis by FXa; format: biochemical; details: for Km / VMAX of Spectrozyme FXa hydrolysis: pH 7.4, 37 °C
Protocol: The initial rate of Spectrozyme FXa hydrolysis by human FXa (87 nM) or that of Spectrozyme PL hydrolysis by human plasmin (120 nM) was monitored from the linear increase in absorbance at 405 nm corresponding to less than 10% consumption of the substrate. […] The data were fitted by Michaelis-Menten Equation (2) to determine KM (substrate affinity to the enzyme) and VMAX (maximum velocity of enzyme reaction). (2) Vi=VMAX×[S]/KM+[S]

[7] = target: T2, human FXa; assay: FXa chromogenic substrate hydrolysis assay; format: biochemical; details: pH 7.4, 37 °C
Protocol: as §1

[8] = set-up: method as in PMID 3491164, PMID 3680992, PMID 1984463; details: patients; read-out: means of plasma CMAX; cited from earlier work
[9] = target: T3, human neutrophil elastase (Homo sapiens, UniProt P08246); assay: Neutrophil elastase chromogenic substrate hydrolysis assay; format: biochemical; details: pH 7.4
T3 construct: purchased Elastin Products Company
T3 sequence (P08246 30-247 limits assumed): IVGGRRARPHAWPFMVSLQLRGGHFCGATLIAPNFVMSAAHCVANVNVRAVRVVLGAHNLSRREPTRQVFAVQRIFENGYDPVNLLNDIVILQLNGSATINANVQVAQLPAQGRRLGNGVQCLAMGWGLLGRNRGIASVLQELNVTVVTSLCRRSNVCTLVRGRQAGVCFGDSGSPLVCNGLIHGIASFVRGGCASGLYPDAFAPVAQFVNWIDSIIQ
Protocol: Direct inhibition of the human coagulation transglutaminase FXIIIa was also studied using a fluorescence-based transglutamination assay as reported in the literature.
After 10 min incubation, 5 µL FXIa substrate (6.9 mM stock concentration) was rapidly added and the residual FXIa activity was measured from the initial rate of increase in absorbance at 405 nm. Assays were performed in similar fashion with trypsin and chymotrypsin. Stock concentrations used were 18.9 µg/mL (trypsin) and 22.7 mM (S-2222) for bovine trypsin assay (final volume was 200 µL) and 2 µg/mL (chymotrypsin) and 16.2 mM (N-Succinyl-Ala-Ala-Pro-Phe-p-nitroanilide) for bovine chymotrypsin assay (final volume was 200 µL). The buffer used for FXIa, trypsin, chymotrypsin assays was 50 mM Tris-HCl buffer, pH 7.4, containing 150 mM NaCl, 2.5 mM CaCl2, 0.1% PEG8000, and 0.02% Tween80. Neutrophil elastase inhibition assay was performed in a 96-well plate with a final volume of 100 µl with 0.125 M 4-(2-hydroxyethyl)-1-piperazineethanesulfonic acid (HEPES) buffer, pH 7.4 containing 0.125% Triton-X 100, as reported earlier. […] After incubation, 3 µL neutrophil elastase substrate (S-1384; 25 mM stock conc.) was rapidly added and the residual enzyme activity measured from the initial rate of increase in the absorbance at 405 nm.

[10] = tested on: human plasma deficient of FVII; assay: APTT clotting assay, FVII-deficient plasma; format: biochemical
Protocol: as §2

[11] = parenteral administration, patients

Sequence of human plasmin (P00747 581-810 limits assumed): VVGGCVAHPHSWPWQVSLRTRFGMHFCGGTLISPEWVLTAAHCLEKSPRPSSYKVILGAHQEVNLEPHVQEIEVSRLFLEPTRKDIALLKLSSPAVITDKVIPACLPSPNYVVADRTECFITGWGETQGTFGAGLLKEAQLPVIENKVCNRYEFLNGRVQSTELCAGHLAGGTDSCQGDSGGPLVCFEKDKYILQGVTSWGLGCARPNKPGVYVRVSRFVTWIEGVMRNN
Sequence of human plasmin (P00747 97-580 partner limits assumed): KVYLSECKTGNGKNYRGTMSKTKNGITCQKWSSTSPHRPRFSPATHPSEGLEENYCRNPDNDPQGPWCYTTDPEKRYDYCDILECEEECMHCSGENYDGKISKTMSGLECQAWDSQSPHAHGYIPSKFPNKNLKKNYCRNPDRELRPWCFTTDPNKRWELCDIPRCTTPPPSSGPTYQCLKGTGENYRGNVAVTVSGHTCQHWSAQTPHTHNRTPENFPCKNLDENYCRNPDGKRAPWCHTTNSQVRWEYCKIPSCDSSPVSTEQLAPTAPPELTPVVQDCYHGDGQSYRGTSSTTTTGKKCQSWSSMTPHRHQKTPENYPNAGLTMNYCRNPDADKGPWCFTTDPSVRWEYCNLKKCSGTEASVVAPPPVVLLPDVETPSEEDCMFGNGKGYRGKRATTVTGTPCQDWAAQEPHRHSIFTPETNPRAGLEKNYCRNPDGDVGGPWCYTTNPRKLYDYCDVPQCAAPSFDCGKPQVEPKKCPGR
T2 sequence (P00742 235-488 limits assumed): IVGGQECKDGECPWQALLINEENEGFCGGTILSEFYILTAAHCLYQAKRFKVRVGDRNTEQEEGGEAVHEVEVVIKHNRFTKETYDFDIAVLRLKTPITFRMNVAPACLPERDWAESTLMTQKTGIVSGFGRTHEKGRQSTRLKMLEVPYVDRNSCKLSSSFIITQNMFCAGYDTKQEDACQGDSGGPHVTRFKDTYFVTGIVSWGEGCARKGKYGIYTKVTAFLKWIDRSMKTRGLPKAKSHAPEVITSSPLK
T2 sequence (P00742 41-179 partner limits assumed): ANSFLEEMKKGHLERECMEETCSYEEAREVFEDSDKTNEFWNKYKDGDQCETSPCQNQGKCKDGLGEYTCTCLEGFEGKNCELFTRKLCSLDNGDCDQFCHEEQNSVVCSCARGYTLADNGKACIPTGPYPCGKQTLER

**Q.** Which IC50 ([1]; Thrombin, pH 7.4, 37 °C) does the source give for `N=C(N)c1ccc(OCCCCCOc2ccc(C(=N)N)cc2)cc1` [pentamidine isethionate, 4,4′-(pentane-1,5-diylbis(oxy))-dibenzimidamide] here?
**A.** > 100 µM

**Q.** And the inhibition at 100 µM ([1]; thrombin, at 100 µM (highest concentration tested))?
**A.** < 40%

**Q.** And the “concentration that completely inhibited platelet-aggregation” value [2]?
**A.** greater than 8.4 µM

**Q.** And the “anemia, incidence” value [3, 11]?
**A.** 1%

**Q.** What about the “leukopenia, incidence” value [3, 11] of the same molecule?
**A.** 10%

**Q.** What about the “thrombocytopenia, incidence” value [3, 11] of the same molecule?
**A.** 3%

**Q.** What about the “blood clot formation, share of treated patients” value ([3]; treated patients) of the same molecule?
**A.** less than 1%

**Q.** What about the “APTTEC2×, concentration to double clotting time” value [4] of the same molecule?
**A.** 29.48 ± 3.88 µm

**Q.** And the HS [5]?
**A.** 1.1 ± 0.1

**Q.** And the IC50 [5]?
**A.** ~8.4 µM and 8.4 µM

**Q.** And the “∆Y (efficacy)” value [5]?
**A.** 98.0 ± 3.3%

**Q.** What about the “∆Y (efficacy)” value ([5]; listed as pentamidine) of the same molecule?
**A.** ~ 100%

**Q.** What about the Km ([6]; 5 µM pentamidine isethionate) of the same molecule?
**A.** 267 ± 21.2 µM

**Q.** What about the “VMAX of Spectrozyme FXa hydrolysis” value ([6]; 5 µM pentamidine isethionate) of the same molecule?
**A.** 114.3 ± 4.7 mAU/min

**Q.** And the Km ([6]; 10 µM pentamidine isethionate)?
**A.** 410 ± 18.2 µM

**Q.** What about the “VMAX of Spectrozyme FXa hydrolysis” value ([6]; 10 µM pentamidine isethionate) of the same molecule?
**A.** 124.2 ± 3.3 mAU/min

**Q.** What about the Km ([6]; 20 µM pentamidine isethionate) of the same molecule?
**A.** 364 ± 36.6 µM

**Q.** What about the “VMAX of Spectrozyme FXa hydrolysis” value ([6]; 20 µM pentamidine isethionate) of the same molecule?
**A.** 63.1 ± 3.6 mAU/min

**Q.** What about the Km ([6]; 50 µM pentamidine isethionate) of the same molecule?
**A.** 690 ± 63.1 µM

**Q.** And the “VMAX of Spectrozyme FXa hydrolysis” value ([6]; 50 µM pentamidine isethionate)?
**A.** 60.3 ± 3.8 mAU/min

**Q.** What about the “decrease of VMAX of Spectrozyme FXa hydrolysis” value ([6]; inhibitor 50 μM vs absence) of the same molecule?
**A.** ~ 2.8 fold

**Q.** What about the “increase of KM for Spectrozyme FXa” value ([6]; inhibitor 50 μM vs absence) of the same molecule?
**A.** ~ 2.3 fold

**Q.** What about the HS [7] of the same molecule?
**A.** 0.97 ± 0.07

**Q.** What about the IC50 [7] of the same molecule?
**A.** ~10 µM and 10.4 µM

**Q.** What about the “∆Y (efficacy)” value [7] of the same molecule?
**A.** 101.6 ± 2.9%

**Q.** And the “∆Y (efficacy)” value ([7]; listed as pentamidine)?
**A.** ~ 100%

**Q.** What about the Cmax [8] of the same molecule?
**A.** ≤ 1000 nM

**Q.** And the IC50 [9]?
**A.** > 100 µM

**Q.** And the “APTTEC2×, concentration to double clotting time” value [10]?
**A.** 26.71 ± 0.50 µm
